Where two headings read alike, the source gives them in different places.
Tests used:
CDK19/Cyclin C = CDK19/Cyclin C (Homo sapiens, UniProt Q9BWU1); assay: NanoBRET live-cell target engagement, NanoLuc-CDK19/Cyclin C in HEK-293; conditions: read-out: CDK19/C Inhibition at 10µM (%), 10µM
CDK2/Cyclin E1 = CDK2/Cyclin E1 (Homo sapiens, UniProt P24941); assay: NanoBRET live-cell target engagement, CDK2-NanoLuc/Cyclin E1 in HEK-293; type: binding; conditions: for inhibition at 10 µM: read-out: CDK2/E1 Inhibition at 10µM (%); for CDK2 Occupancy (%): Panel A
CDK12/Cyclin K = CDK12/Cyclin K (Homo sapiens, UniProt Q9NYV4); assay: NanoBRET live-cell target engagement, CDK12-NanoLuc/Cyclin K in HEK-293; type: binding; conditions: read-out: CDK12/K Inhibition at 10µM (%), 10µM
CDK17/Cyclin Y = CDK17/Cyclin Y (Homo sapiens, UniProt Q00537); assay: NanoBRET live-cell target engagement, CDK17-NanoLuc/Cyclin Y in HEK-293; type: binding; conditions: for IC50: read-out: CDK17/Y IC50; for inhibition at 10 µM: read-out: CDK17/Y Inhibition at 10µM (%), 10µM
CDK20/Cyclin H = CDK20/Cyclin H (Homo sapiens, UniProt Q8IZL9); assay: NanoBRET live-cell target engagement, NanoLuc-CDK20/Cyclin H in HEK-293; type: binding; conditions: read-out: CDK20/H Inhibition at 10µM (%), 10µM
CDK1/Cyclin E1 = CDK1/Cyclin E1 (Homo sapiens, UniProt P06493); assay: NanoBRET live-cell target engagement, CDK1-NanoLuc/Cyclin E1 in HEK-293; type: binding; conditions: for inhibition at 10 µM: read-out: CDK1/E1 Inhibition at 10µM (%); for IC50: read-out: CDK1/E1 IC50
CDK11B/Cyclin L2 = CDK11B/Cyclin L2 (Homo sapiens, UniProt P21127); assay: NanoBRET live-cell target engagement, CDK11B-NanoLuc/Cyclin L2 in HEK-293; type: binding; conditions: read-out: CDK11b/L2 Inhibition at 10µM (%), 10µM
CDK16/Cyclin Y = CDK16/Cyclin Y (Homo sapiens, UniProt Q00536); assay: NanoBRET live-cell target engagement, CDK16-NanoLuc/Cyclin Y in HEK-293; type: binding; conditions: for IC50: read-out: CDK16/Y IC50; for inhibition at 10 µM: read-out: CDK16/Y Inhibition at 10µM (%), 10µM
CDK10/Cyclin L2 = CDK10/Cyclin L2 (Homo sapiens, UniProt Q15131); assay: NanoBRET live-cell target engagement, CDK10-NanoLuc/Cyclin L2 in HEK-293; conditions: for inhibition at 10 µM: read-out: CDK10/L2 Inhibition at 10µM (%), 10µM
CDK5/CDK5R1 = CDK5/CDK5R1 (Homo sapiens, UniProt Q00535); assay: NanoBRET live-cell target engagement, CDK5-NanoLuc/CDK5R1 in HEK-293; type: binding; conditions: for inhibition at 10 µM: read-out: CDK5/CDK5R1 Inhibition at 10µM (%); for IC50: read-out: CDK5/CDK5R1 IC50

Sequence of CDK10/Cyclin L2 (Q15131 whole entry): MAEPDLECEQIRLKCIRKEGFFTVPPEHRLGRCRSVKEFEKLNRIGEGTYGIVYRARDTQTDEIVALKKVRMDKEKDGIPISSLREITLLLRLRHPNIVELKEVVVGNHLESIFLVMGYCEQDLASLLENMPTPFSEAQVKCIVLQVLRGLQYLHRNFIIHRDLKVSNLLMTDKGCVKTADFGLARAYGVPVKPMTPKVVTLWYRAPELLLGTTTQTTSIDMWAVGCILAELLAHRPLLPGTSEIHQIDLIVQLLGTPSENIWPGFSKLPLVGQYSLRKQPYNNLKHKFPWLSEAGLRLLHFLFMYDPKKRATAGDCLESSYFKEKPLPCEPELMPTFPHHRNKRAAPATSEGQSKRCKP
Sequence of CDK11B/Cyclin L2 (P21127 1-782 isoform P21127-2): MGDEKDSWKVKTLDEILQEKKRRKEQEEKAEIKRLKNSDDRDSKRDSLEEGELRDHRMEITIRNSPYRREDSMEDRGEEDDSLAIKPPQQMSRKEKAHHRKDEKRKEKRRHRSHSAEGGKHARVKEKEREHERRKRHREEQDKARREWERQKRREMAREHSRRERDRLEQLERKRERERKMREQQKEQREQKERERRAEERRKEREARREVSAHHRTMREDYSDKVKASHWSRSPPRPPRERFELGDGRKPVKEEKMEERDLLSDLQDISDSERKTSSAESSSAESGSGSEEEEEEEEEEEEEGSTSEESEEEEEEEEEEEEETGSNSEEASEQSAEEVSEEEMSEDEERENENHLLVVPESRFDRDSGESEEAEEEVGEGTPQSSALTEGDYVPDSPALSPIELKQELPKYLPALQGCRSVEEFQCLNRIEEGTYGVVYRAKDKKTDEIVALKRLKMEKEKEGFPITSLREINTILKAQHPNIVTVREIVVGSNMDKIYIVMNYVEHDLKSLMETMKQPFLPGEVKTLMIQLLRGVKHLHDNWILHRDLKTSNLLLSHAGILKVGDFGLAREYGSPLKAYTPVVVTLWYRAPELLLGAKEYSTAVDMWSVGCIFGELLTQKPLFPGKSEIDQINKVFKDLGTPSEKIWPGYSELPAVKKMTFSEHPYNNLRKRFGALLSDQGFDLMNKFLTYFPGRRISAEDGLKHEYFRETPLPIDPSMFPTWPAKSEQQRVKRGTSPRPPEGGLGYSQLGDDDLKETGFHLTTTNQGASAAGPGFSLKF
Sequence of CDK17/Cyclin Y (Q00537 whole entry): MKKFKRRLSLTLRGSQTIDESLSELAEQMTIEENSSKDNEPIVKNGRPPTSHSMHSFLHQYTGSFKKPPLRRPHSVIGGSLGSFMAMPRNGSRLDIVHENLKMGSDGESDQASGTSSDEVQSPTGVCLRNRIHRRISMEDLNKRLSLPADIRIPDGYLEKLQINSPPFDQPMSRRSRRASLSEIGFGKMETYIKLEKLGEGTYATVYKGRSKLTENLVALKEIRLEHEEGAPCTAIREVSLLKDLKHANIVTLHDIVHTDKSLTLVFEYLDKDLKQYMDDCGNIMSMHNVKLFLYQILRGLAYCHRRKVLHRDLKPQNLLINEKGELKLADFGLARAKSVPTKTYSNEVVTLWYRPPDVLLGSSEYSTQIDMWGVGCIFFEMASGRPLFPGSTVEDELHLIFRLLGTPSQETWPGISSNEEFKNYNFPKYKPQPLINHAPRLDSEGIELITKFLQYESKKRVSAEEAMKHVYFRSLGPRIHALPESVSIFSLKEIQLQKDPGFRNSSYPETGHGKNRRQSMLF
Sequence of CDK17/Cyclin Y (Q8ND76 whole entry partner): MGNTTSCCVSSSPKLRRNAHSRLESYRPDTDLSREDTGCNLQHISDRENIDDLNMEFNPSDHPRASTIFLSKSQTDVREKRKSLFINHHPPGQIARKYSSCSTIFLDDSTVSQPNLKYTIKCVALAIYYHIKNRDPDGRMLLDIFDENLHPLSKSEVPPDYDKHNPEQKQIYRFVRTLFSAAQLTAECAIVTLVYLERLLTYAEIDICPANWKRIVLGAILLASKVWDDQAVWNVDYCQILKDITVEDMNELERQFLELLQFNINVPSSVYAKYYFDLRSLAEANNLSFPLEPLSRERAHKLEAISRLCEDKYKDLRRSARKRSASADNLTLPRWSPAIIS
Sequence of CDK1/Cyclin E1 (P06493 whole entry): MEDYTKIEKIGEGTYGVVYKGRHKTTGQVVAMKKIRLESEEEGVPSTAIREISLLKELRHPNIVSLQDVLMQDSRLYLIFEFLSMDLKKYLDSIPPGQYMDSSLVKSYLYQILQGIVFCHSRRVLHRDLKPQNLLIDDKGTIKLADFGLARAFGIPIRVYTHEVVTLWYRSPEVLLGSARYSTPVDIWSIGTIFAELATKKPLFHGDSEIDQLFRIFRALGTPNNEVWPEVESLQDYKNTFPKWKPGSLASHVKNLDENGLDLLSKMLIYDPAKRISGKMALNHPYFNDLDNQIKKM
Sequence of CDK1/Cyclin E1 (P24864 whole entry partner): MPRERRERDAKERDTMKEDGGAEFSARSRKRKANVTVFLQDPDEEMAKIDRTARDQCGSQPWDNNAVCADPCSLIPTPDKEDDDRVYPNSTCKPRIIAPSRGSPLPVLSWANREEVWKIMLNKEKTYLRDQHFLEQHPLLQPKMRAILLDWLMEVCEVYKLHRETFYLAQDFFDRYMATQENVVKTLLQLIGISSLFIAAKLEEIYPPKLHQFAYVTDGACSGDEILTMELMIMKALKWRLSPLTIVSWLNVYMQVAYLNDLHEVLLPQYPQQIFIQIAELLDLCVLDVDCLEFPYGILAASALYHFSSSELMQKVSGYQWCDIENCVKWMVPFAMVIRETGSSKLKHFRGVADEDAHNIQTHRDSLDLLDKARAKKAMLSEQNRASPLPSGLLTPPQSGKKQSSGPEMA
Sequence of CDK12/Cyclin K (Q9NYV4 1-1481 isoform Q9NYV4-2): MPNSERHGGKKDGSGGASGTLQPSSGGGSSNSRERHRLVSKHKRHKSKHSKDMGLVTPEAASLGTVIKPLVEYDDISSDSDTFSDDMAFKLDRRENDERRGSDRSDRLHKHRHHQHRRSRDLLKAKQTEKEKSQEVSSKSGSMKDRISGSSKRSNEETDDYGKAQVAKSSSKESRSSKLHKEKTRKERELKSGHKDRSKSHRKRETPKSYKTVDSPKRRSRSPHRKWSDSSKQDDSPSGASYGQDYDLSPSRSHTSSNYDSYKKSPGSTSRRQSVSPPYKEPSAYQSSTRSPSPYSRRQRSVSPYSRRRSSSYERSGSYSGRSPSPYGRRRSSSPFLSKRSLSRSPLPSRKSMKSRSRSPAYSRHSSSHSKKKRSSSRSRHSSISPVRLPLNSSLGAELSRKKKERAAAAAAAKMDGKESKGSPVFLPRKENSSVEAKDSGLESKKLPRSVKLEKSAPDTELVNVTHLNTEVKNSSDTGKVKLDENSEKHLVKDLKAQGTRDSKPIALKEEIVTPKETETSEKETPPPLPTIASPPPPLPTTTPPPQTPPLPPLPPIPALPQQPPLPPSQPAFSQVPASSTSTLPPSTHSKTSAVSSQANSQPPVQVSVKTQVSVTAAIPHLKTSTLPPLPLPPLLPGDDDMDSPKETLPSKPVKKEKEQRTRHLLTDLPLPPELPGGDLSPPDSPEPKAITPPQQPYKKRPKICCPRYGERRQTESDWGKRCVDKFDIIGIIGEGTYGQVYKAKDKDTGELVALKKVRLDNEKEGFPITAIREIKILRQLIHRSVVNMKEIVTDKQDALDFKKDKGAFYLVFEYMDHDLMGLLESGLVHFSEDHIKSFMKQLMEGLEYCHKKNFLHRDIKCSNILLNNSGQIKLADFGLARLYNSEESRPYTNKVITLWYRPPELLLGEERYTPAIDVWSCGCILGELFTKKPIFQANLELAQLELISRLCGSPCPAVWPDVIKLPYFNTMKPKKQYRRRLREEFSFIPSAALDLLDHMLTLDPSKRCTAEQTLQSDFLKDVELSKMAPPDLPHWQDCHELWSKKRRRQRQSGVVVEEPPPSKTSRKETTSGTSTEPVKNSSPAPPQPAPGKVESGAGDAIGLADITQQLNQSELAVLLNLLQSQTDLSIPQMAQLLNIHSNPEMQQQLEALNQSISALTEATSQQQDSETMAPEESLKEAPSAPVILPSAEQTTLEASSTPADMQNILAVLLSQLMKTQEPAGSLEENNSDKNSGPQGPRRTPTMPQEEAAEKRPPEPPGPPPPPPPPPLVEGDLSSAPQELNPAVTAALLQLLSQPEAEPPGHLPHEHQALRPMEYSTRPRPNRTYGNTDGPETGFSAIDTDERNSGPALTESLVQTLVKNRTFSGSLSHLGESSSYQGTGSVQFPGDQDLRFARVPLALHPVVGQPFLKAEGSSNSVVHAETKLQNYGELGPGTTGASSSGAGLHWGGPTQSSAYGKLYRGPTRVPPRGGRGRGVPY
Sequence of CDK12/Cyclin K (O75909 whole entry partner): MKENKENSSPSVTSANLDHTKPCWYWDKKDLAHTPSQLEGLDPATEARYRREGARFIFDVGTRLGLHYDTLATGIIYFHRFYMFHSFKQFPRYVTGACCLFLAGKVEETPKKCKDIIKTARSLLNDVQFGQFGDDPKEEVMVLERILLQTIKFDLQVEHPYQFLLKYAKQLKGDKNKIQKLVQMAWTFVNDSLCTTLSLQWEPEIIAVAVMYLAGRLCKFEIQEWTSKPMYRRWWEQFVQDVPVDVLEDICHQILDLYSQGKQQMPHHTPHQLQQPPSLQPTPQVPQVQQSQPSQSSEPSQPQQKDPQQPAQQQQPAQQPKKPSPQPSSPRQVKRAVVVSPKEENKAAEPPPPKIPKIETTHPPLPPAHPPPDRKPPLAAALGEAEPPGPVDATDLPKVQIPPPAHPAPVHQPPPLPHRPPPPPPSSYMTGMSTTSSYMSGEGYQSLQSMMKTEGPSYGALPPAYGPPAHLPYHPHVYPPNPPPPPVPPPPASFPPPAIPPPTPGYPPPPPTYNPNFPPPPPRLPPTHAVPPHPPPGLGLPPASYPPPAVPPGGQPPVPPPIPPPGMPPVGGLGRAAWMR

Compound: COCCN1CCN(Cc2ccc(-c3n[nH]c4c3C(=O)c3c(NC(=O)NN5CCOCC5)cccc3-4)cc2)CC1 [RGB286638]
- inhibition at 10 µM (CDK19/Cyclin C; independent experiment 1): 32.8%
- inhibition at 10 µM (CDK19/Cyclin C; independent experiment 2): 83.3%
- inhibition at 10 µM (CDK2/Cyclin E1; average of experiments): 84.4%
- inhibition at 10 µM (CDK2/Cyclin E1; independent experiment 1): 83.7%
- inhibition at 10 µM (CDK2/Cyclin E1; independent experiment 2): 85.1%
- CDK2 Occupancy (%) (CDK2/Cyclin E1; LOG10([RGB-286638]) 0.045757 LOG10(µM)): 96.9519%
- CDK2 Occupancy (%) (CDK2/Cyclin E1; LOG10([RGB-286638]) 0.522879 LOG10(µM)): 98.1016%
- CDK2 Occupancy (%) (CDK2/Cyclin E1; LOG10([RGB-286638]) 1 LOG10(µM)): 98.1016%
- CDK2 Occupancy (%) (CDK2/Cyclin E1; LOG10([RGB-286638]) -0.43136 LOG10(µM)): 95.1872%
- CDK2 Occupancy (%) (CDK2/Cyclin E1; LOG10([RGB-286638]) -0.90849 LOG10(µM)): 90.2941%
- CDK2 Occupancy (%) (CDK2/Cyclin E1; LOG10([RGB-286638]) -1.38561 LOG10(µM)): 78.6096%
- CDK2 Occupancy (%) (CDK2/Cyclin E1; LOG10([RGB-286638]) -1.86273 LOG10(µM)): 57.754%
- CDK2 Occupancy (%) (CDK2/Cyclin E1; LOG10([RGB-286638]) -2.33985 LOG10(µM)): 30.4813%
- CDK2 Occupancy (%) (CDK2/Cyclin E1; LOG10([RGB-286638]) -2.81697 LOG10(µM)): 11.4973%
- CDK2 Occupancy (%) (CDK2/Cyclin E1; LOG10([RGB-286638]) -3.29409 LOG10(µM)): 5.615%
- CDK2 Occupancy (%) (CDK2/Cyclin E1; LOG10([RGB-286638]) -3.77121 LOG10(µM)): 0.2674%
- IC50 (CDK2/Cyclin E1; average (± SEM where n=3), read-out: CDK2/E1 IC50): 14 ± 5 nM
- IC50 (CDK2/Cyclin E1; independent experiment 1, read-out: CDK2/E1 IC50): 8.9 nM
- IC50 (CDK2/Cyclin E1; independent experiment 2, read-out: CDK2/E1 IC50): 9.8 nM
- IC50 (CDK2/Cyclin E1; independent experiment 3, read-out: CDK2/E1 IC50): 23 nM
- IC50 (CDK2/Cyclin E1; live HEK-293, 2 h, mean ± S.E.M. (n=3) or mean (n=2), read-out: IC50 for CDK/cyclin complexes, CDK2/E1): 12 to 16 nM
- inhibition at 10 µM (CDK12/Cyclin K; average of experiments): 47.5%
- inhibition at 10 µM (CDK12/Cyclin K; independent experiment 1): 30.7%
- inhibition at 10 µM (CDK12/Cyclin K; independent experiment 2): 64.4%
- IC50 (CDK17/Cyclin Y; average (± SEM where n=3)): 6.6 nM
- IC50 (CDK17/Cyclin Y; independent experiment 1): 7.9 nM
- IC50 (CDK17/Cyclin Y; independent experiment 2): 5.3 nM
- inhibition at 10 µM (CDK17/Cyclin Y; average of experiments): 93.9%
- inhibition at 10 µM (CDK17/Cyclin Y; independent experiment 1): 95.7%
- inhibition at 10 µM (CDK17/Cyclin Y; independent experiment 2): 92.1%
- inhibition at 10 µM (CDK20/Cyclin H; independent experiment 1): 46%
- inhibition at 10 µM (CDK20/Cyclin H; independent experiment 2): 84.3%
- inhibition at 10 µM (CDK1/Cyclin E1; average of experiments): 87.9%
- inhibition at 10 µM (CDK1/Cyclin E1; independent experiment 1): 79.8%
- inhibition at 10 µM (CDK1/Cyclin E1; independent experiment 2): 96%
- IC50 (CDK1/Cyclin E1; average (± SEM where n=3)): 39 nM
- IC50 (CDK1/Cyclin E1; independent experiment 1): 37 nM
- IC50 (CDK1/Cyclin E1; independent experiment 2): 41 nM
- inhibition at 10 µM (CDK11B/Cyclin L2; average of experiments): 32.6%
- inhibition at 10 µM (CDK11B/Cyclin L2; independent experiment 1): 19.9%
- inhibition at 10 µM (CDK11B/Cyclin L2; independent experiment 2): 45.2%
- IC50 (CDK16/Cyclin Y; average (± SEM where n=3)): 5.2 nM
- IC50 (CDK16/Cyclin Y; independent experiment 1): 5.4 nM
- IC50 (CDK16/Cyclin Y; independent experiment 2): 5 nM
- inhibition at 10 µM (CDK16/Cyclin Y; independent experiment 1): 95.2%
- inhibition at 10 µM (CDK16/Cyclin Y; independent experiment 2): 92.3%
- IC50 (CDK10/Cyclin L2; CDK10/L2 IC50 (nM), average (± SEM where n=3)): 790 nM
- IC50 (CDK10/Cyclin L2; CDK10/L2 IC50 (nM), independent experiment 1): 790 nM
- IC50 (CDK10/Cyclin L2; CDK10/L2 IC50 (nM), independent experiment 2): 780 nM
- IC50 (CDK10/Cyclin L2; IC50 for CDK/cyclin complexes, CDK10/L2, live HEK-293, 2 h, mean ± S.E.M. (n=3) or mean (n=2)): 790 nM
- inhibition at 10 µM (CDK10/Cyclin L2; average of experiments): 61.4%
- inhibition at 10 µM (CDK10/Cyclin L2; independent experiment 1): 37.8%
- inhibition at 10 µM (CDK10/Cyclin L2; independent experiment 2): 85.1%
- inhibition at 10 µM (CDK5/CDK5R1; average of experiments): 84.4%
- inhibition at 10 µM (CDK5/CDK5R1; independent experiment 1): 71.7%
- inhibition at 10 µM (CDK5/CDK5R1; independent experiment 2): 97.2%
- IC50 (CDK5/CDK5R1; average (± SEM where n=3)): 75 nM
- IC50 (CDK5/CDK5R1; independent experiment 1): 80 nM
- IC50 (CDK5/CDK5R1; independent experiment 2): 70 nM
